This is an account of results in US6846805B2, “Helical peptidomimetics” (The Brigham and Women's Hospital, Inc., priority 2002, dated 2005).

SMILES strings stand for the structures. Square brackets hold non-standard residues; d marks the D form. Peptide text beside a SMILES is read from it. * marks the point of attachment. dBpa = N[C@H](Cc1ccc(C(=O)c2ccccc2)cc1)C(=O)O; Boc = CC(C)(C)OC(=O)*; Aib = CC(C)(N)C(=O)O; Bn = c1ccc(C*)cc1

One test has as its system γ-secretase (production of total Aβ). Kind of test: Inhibition of total Aβ production in APP-transfected cells (sandwich ELISA). In kind it is cell-based. To be noted: cell-based assay, CHO cells stably transfected with human APP; read-out: IC50 (concentration of compound that reduced production of total Aβ by 50%). The source says: Based on the helical model for the APP transmembrane domain, we have identified short peptides designed to adopt a similar conformation that block γ-secretase activity. Judicious replacement of selected residues of short APP-derived peptides with 2-aminoisobutyric acid (Aib), a known helix-inducing amino acid (19, 20), provided peptides that, in principle, mimic the γ-secretase cleavage site on one face of the helix, with Aib residues on the other face. We have identified Aib-containing peptides (see below) that inhibit Aβ production in APP-transfected cells with IC50's as low as 2 μM. […] We also discovered that an Aib decapeptide that is not based on the APP sequence (VIIb in ref 19: […] The crystal structure of this compound has been determined, and the peptide is fully helical (19). […] These peptides likewise assume a helical conformation, although of the opposite sense (left-handed instead of right-handed). Thus, the invention advantageously provides helical peptidomimetics having improved metabolic stability. […] IC50 is the concentration of compound that reduced production of total Aβ by 50% in a cell-based assay using CHO cells stably transfected with human APP. […] The 15 D-peptides, varied in first position, are tested for their ability to inhibit total Aβ production in APP-transfected cell lines using a sensitive, quantitative, and convenient sandwich ELISA as we have previously described (12, 13). The compound best able to reduce Aβ production is then used as a starting point for the synthesis of a second round of peptide synthesis, 15 compounds each defined at the second position and containing the optimal first residue. In this iterative fashion, the optimal residue for each position is determined.
(In an ELISA, binding on a coated surface is turned into a signal by an enzyme label.)
`CC[C@H](C)[C@H](NC(=O)[C@@H](NC(=O)[C@@H](NC(=O)C(C)(C)NC(=O)OC(C)(C)C)C(C)C)C(C)C)C(=O)NC(C)(C)C(=O)N[C@H](C(=O)N[C@H](C(=O)NC(C)(C)C(=O)OC)C(C)C)[C@@H](C)OCc1ccccc1` [Compound 8, Boc-Aib-Val-Val-Ile-Aib-Thr(OBz)-Val-Aib-OMe] (Boc-[Aib]VVI[Aib]T(Bn)V[Aib]-OMe): the IC50 is 6 µM.

Consider `CC[C@H](C)[C@H](NC(=O)C(C)(C)NC(=O)OC(C)(C)C)C(=O)N[C@@H](C)C(=O)N[C@H](C(=O)NC(C)(C)C(=O)N[C@H](C(=O)N[C@H](C(=O)NC(C)(C)C(=O)OC)C(C)C)[C@@H](C)CC)[C@@H](C)OCc1ccccc1` [Compound 3, Boc-Aib-Ile-Ala-Thr(OBz)-Aib-Ile-Val-Aib-OMe] (Boc-[Aib]IAT(Bn)[Aib]IV[Aib]-OMe), for which the IC50 came out at 10 µM. The same measure, in the same setting: the same measure for `CC[C@H](C)[C@H](NC(=O)[C@@H](NC(=O)[C@@H](NC(=O)C(C)(C)NC(=O)CNC(=O)[C@@H](NC(=O)OC(C)(C)C)C(C)C)C(C)C)C(C)C)C(=O)NC(C)(C)C(=O)N[C@H](C(=O)N[C@H](C(=O)NC(C)(C)C(=O)OC)C(C)C)[C@@H](C)OCc1ccccc1` [Compound 10, Boc-Val-Gly-Aib-Val-Val-Ile-Aib-Thr(OBz)-Val-Aib-OMe] (Boc-VG[Aib]VVI[Aib]T(Bn)V[Aib]-OMe): 3 µM; for `CC[C@H](C)[C@H](NC(=O)C(C)(C)NC(=O)[C@@H](NC(=O)OC(C)(C)C)C(C)C)C(=O)N[C@@H](C)C(=O)N[C@H](C(=O)NC(C)(C)C(=O)N[C@H](C(=O)N[C@H](C(=O)NC(C)(C)C(=O)OC)C(C)C)[C@@H](C)CC)[C@@H](C)OCc1ccccc1` [Compound 4, Boc-Val-Aib-Ile-Ala-Thr(OBz)-Aib-Ile-Val-Aib-OMe] (Boc-V[Aib]IAT(Bn)[Aib]IV[Aib]-OMe): 2 µM. In the case of `CC[C@H](C)[C@H](NC(=O)[C@@H](NC(=O)[C@@H](NC(=O)C(C)(C)NC(=O)CNC(=O)OC(C)(C)C)C(C)C)C(C)C)C(=O)NC(C)(C)C(=O)N[C@H](C(=O)N[C@H](C(=O)NC(C)(C)C(=O)OC)C(C)C)[C@@H](C)OCc1ccccc1` [Compound 9, Boc-Gly-Aib-Val-Val-Ile-Aib-Thr(OBz)-Val-Aib-OMe] (Boc-G[Aib]VVI[Aib]T(Bn)V[Aib]-OMe), the IC50 stood at 3 µM.

Take `COC(=O)C(C)(C)NC(=O)[C@H](CC(C)C)NC(=O)[C@H](C)NC(=O)C(C)(C)NC(=O)[C@H](CC(C)C)NC(=O)[C@H](C)NC(=O)C(C)(C)NC(=O)[C@H](CC(C)C)NC(=O)[C@H](C)NC(=O)C(C)(C)NC(=O)OC(C)(C)C` [VIIb, Boc-Aib-Ala-Leu-Aib-Ala-Leu-Aib-Ala-Leu-Aib-O-methylester, reference compound] (Boc-[Aib]AL[Aib]AL[Aib]AL[Aib]-OMe): the IC50 turned out to be 2 µM. The same measure, in the same setting: then `CC[C@H](C)[C@H](NC(=O)[C@@H](NC(=O)[C@@H](NC(=O)OC(C)(C)C)C(C)C)C(C)C)C(=O)NC(C)(C)C(=O)N[C@H](C(=O)N[C@H](C(=O)NC(C)(C)C(=O)OC)C(C)C)[C@@H](C)OCc1ccccc1` [Compound 7, Boc-Val-Val-Ile-Aib-Thr(OBz)-Val-Aib-OMe] (Boc-VVI[Aib]T(Bn)V[Aib]-OMe), with 6 µM.

`CC[C@H](C)[C@H](NC(=O)C(C)(C)NC(=O)[C@@H](NC(=O)CNC(=O)OC(C)(C)C)C(C)C)C(=O)N[C@@H](C)C(=O)N[C@H](C(=O)NC(C)(C)C(=O)N[C@H](C(=O)N[C@H](C(=O)NC(C)(C)C(=O)OC)C(C)C)[C@@H](C)CC)[C@@H](C)OCc1ccccc1` [Compound 5, Boc-Gly-Val-Aib-Ile-Ala-Thr(OBz)-Aib-Ile-Val-Aib-OMe] (Boc-GV[Aib]IAT(Bn)[Aib]IV[Aib]-OMe): the IC50 amounted to 5 µM. On the same count and under the same terms, then `CC[C@H](C)[C@H](NC(=O)OC(C)(C)C)C(=O)N[C@@H](C)C(=O)N[C@H](C(=O)NC(C)(C)C(=O)N[C@H](C(=O)N[C@H](C(=O)NC(C)(C)C(=O)OC)C(C)C)[C@@H](C)CC)[C@@H](C)OCc1ccccc1` [Compound 2, Boc-Ile-Ala-Thr(OBz)-Aib-Ile-Val-Aib-OMe] (Boc-IAT(Bn)[Aib]IV[Aib]-OMe), with 15 µM; and `CC[C@H](C)[C@H](NC(=O)[C@@H](NC(=O)OC(C)(C)C)C(C)C)C(=O)NC(C)(C)C(=O)N[C@H](C(=O)N[C@H](C(=O)NC(C)(C)C(=O)OC)C(C)C)[C@@H](C)OCc1ccccc1` [Compound 6, Boc-Val-Ile-Aib-Thr(OBz)-Val-Aib-OMe] (Boc-VI[Aib]T(Bn)V[Aib]-OMe), with 12 µM; and `CC[C@H](C)[C@H](NC(=O)C(C)(C)NC(=O)[C@@H](NC(=O)[C@H](C)NC(=O)OC(C)(C)C)[C@@H](C)OCc1ccccc1)C(=O)N[C@H](C(=O)NC(C)(C)C(=O)OC)C(C)C` [Compound 1, Boc-Ala-Thr(OBz)-Aib-Ile-Val-Aib-OMe] (Boc-AT(Bn)[Aib]IV[Aib]-OMe), with 25 µM.

Still in this test, the particulars now being: same cell-based assay, CHO cells stably transfected with human APP; read-out: IC50 (reduction of total Aβ production).
In the case of `COC(=O)C(C)(C)NC(=O)[C@H](NC(=O)[C@H](NC(=O)C(C)(C)NC(=O)[C@@H](Cc1ccc(C(=O)c2ccccc2)cc1)NC(=O)[C@H](NC(=O)[C@H](NC(=O)C(C)(C)NC(=O)CNC(=O)[C@H](NC(=O)OC(C)(C)C)C(C)C)C(C)C)C(C)C)[C@H](C)OCc1ccccc1)C(C)C` [SEQ ID NO:11, Boc-D-Val-Gly-Aib-D-Val-D-Val-D-BPA-Aib-D-Thr(OBz)-D-Val-Aib-OMe] (Boc-[dV]G[Aib][dV][dV][dBpa][Aib][dT](Bn)[dV][Aib]-OMe), the IC50 amounted to 0.1 µM.
